Data on 39 molecules can be found in patent US6410740B1, “Heterocyclylmethyl-substituted pyrazol derivatives” (Bayer Aktiengesellschaft, priority 1996, dated 2002).

SMILES strings stand for the structures. Like-named read-outs stand apart in the source and are kept apart here. Some results are limits rather than exact numbers.

For assay [1], the target named is T1, soluble guanylate cyclase (Sus scrofa, UniProt A0A4X1U7N1+A0ACM8Q7I6).
T1 construct: endogenous in cells; host or cells: primary endothelial cells from pig aorta
T1 sequence (A0A4X1U7N1 1-619): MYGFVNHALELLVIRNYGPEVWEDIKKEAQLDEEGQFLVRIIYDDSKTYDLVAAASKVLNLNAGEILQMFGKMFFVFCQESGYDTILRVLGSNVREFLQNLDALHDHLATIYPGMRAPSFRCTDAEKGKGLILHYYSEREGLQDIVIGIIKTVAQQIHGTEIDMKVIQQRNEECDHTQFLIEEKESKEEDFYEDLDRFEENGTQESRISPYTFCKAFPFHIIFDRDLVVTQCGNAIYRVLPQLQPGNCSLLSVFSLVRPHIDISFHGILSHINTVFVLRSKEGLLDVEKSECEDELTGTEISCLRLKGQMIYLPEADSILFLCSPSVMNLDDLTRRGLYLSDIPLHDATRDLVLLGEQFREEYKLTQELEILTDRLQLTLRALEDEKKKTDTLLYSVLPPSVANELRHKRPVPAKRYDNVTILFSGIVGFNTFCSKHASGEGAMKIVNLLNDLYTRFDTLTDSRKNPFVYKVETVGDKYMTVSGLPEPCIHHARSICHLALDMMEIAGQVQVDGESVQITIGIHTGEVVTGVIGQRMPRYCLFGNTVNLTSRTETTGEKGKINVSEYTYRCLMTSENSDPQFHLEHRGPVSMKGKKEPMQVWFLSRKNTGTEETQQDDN
T1 sequence (A0ACM8Q7I6 1-688): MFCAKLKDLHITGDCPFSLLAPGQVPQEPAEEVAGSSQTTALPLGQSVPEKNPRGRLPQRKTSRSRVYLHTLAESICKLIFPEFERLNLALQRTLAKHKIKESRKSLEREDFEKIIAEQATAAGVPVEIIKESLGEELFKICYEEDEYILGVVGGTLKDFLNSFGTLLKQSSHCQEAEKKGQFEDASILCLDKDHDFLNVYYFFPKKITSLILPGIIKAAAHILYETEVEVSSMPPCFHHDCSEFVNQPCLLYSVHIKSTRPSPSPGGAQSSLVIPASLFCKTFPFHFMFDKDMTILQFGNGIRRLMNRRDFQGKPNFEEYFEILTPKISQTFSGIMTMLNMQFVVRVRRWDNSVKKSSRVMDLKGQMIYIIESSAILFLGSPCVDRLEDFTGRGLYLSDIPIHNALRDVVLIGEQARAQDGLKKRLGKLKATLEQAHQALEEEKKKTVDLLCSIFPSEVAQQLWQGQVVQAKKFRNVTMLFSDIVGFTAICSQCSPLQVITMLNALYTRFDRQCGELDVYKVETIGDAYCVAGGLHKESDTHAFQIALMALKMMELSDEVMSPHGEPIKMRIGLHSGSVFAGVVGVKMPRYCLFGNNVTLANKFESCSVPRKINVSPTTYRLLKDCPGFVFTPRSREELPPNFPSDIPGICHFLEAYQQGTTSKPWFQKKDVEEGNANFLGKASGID
The assay is described as follows: Stimulation of soluble guanylate cyclase in primary endothelial cells (intracellular cGMP, radioimmunological). The note with it: test substance 1 μM, 10-minute incubation, primary pig aortic endothelial cells, with or without SNP 1 μM (not stated which); for activation at 1 µM: 10 min, read-out: % increase in cGMP. Format: cell-based. Here is the method: Stimulation of Soluble Guanylate Cyclase in Primary Endothelial Cells
(§1) Primary endothelial cells were isolated from pig aortas by treatment with collagenase solution. The cells were then cultured in a culture medium until confluence was reached. For the investigations, the cells were subjected to passaging, sown in cell culture plates and subcultured until confluence was reached. To stimulate the endothelial guanylate cyclase, the culture medium was suctioned off and the cells were washed once with Ringer's solution and incubated in stimulation buffer with or without an NO donor (sodium nitroprusside, SNP, 1 μM). Thereafter, the test substances (final concentration 1 μM) were pipetted onto the cells. At the end of the 10-minute incubation period, the buffered solution was suctioned off and the cells were lysed at −20° C. for 16 hours. The intracellular cGMP was then determined radioimmunologically.
as §1, with “sucked” for “suctioned”
as §1, with “without” for “without an”, “buffer” for “buffered”

For assay [2], the system named is rabbit aortic rings precontracted with phenylephrine. As to the kind of experiment: Vessel-relaxing action in vitro on isolated aortic rings precontracted with phenylephrine. The note with it: rabbit aorta rings, phenylephrine contraction. Here is the method:
Vessel-relaxing Action in vitro
Rings 1.5 mm wide of an aorta isolated from a rabbit are introduced individually, under pretension, in 5 ml organ baths with Krebs-Henseleit solution warmed to 37° C. and gassed with carbogen. The contraction force is amplified and digitalized and recorded in parallel on a line recorder. To generate a contraction, phenylephrine is added cumulatively to the bath in an increasing concentration.
After several control cycles, the substance to be investigated is investigated in each further pass in each case in an increasing dosage, and a comparison is made with the level of the contraction achieved in the last preliminary pass. The concentration necessary to reduce the level of the control value by 50% (IC50) is calculated from this. The standard application volume is 5 μl.
After several control cycles, the substance to be investigated is investigated in each further pass in each case in an increasing dosage, and a comparison is made with the level of the contraction achieved in the last preliminary pass. The concentration necessary to reduce the level of the control value by 50% (IC50) is calculated from this.
The standard application volume is 5 μl.

Where [3] appears, read: Oryctolagus cuniculus, embodiment II.
The mark [4] stands for this setting: Oryctolagus cuniculus, iv, embodiment IV.
[5] abbreviates: Oryctolagus cuniculus, embodiment III.

For the molecule `Cc1nc(-c2nn(Cc3ccccc3)c3ccccc23)nc(C)c1Cl` [II-47], the activation at 1 µM in assay [1] (embodiment II) is 240%.
`Fc1ccccc1Cn1nc(-c2ncccn2)c2ccccc21` [II-40]: the activation at 1 µM in assay [1] (embodiment II) was > 1000%. In addition, inhibition in assay [2] (setting [3]) was half-maximal at 24 µM (IC50).
Regarding `O/N=C/c1ccc(-c2nn(Cc3ccccc3)c3ccccc23)o1` [IV-153], the activation at 1 µM in assay [1] (embodiment IV) worked out at 341%. For the same molecule, in assay [2] (setting [4]), the IC50 is 9.1 µM.
Regarding `OCc1coc(-c2nn(Cc3ccccc3)c3ccccc23)c1` [IV-164], in assay [1] (embodiment IV), the activation at 1 µM was 289%. In assay [2] (setting [4]), it took 12 µM to reach half-maximal inhibition (IC50).
On to `CC(=O)c1ccc(-c2nn(Cc3ccccc3)c3ccccc23)o1` [IV-140, 3-(5-Acetylfuran-2-yl)-1-benzyl-indazole], for which the activation at 1 µM in assay [1] (embodiment IV) was 619%. This molecule returned an IC50 in assay [2] (setting [4]) of 12 to 17 µM.
As to `Clc1nccc(-c2nn(Cc3ccccc3)c3ccccc23)n1` [II-50], the activation at 1 µM in assay [1] (embodiment II) was determined as 116%. Also, the IC50 in assay [2] (setting [3]) is > 31 µM.
Molecule `CCc1coc(-c2nn(Cc3ccccc3)c3ccccc23)n1` [III-88] registered an IC50 in assay [2] (setting [5]) of 7.1 µM.
On to `O=[N+]([O-])c1ccc(-c2nn(Cc3ccccc3)c3ccccc23)o1` [IV-143, 1-Benzyl-3-(5-nitrofuran-2-yl)-indazole], for which the activation at 1 µM in assay [1] (embodiment IV) was > 1000%.
As to `Cc1cc(-c2nn(Cc3ccccc3)c3ccccc23)nc(Cl)n1` [II-51], the IC50 in assay [2] (setting [3]) was > 30 µM.
`Cc1cncc(-c2nn(Cc3ccccc3)c3ccccc23)n1` [II-56]: the activation at 1 µM in assay [1] (embodiment II) turned out to be 233%. The IC50 in assay [2] (setting [3]) was > 33 µM.
With `OCc1cccc(-c2nn(Cc3ccccc3)c3ccccc23)n1` [II-36, 1-Benzyl-3-(6-hydroxymethyl-2-pyridyl)indazole], the activation at 1 µM in assay [1] (embodiment II) was found to be 225%. The same molecule displayed an IC50 in assay [2] (setting [3]) of 13 µM.
For `O=Cc1ccc(-c2nn(Cc3ccc(F)cc3)c3ccccc23)o1` [IV-148], the activation at 1 µM in assay [1] (embodiment IV) stood at 978%. For the same molecule, in assay [2] (setting [4]), the IC50 is 6.7 µM.
`N#Cc1ccccc1Cn1nc(-c2ncccn2)c2ccccc21` [II-41]: in assay [1] (embodiment II), the activation at 1 µM turned out to be 557%. For the same molecule, the IC50 in assay [2] (setting [3]) turned out to be 13 µM.
As to `OCc1nnc(-c2nn(Cc3ccccc3)c3ccccc23)o1` [III-81], in assay [1] (embodiment III), the activation at 1 µM was found to be 110%. In assay [2] (setting [5]), this molecule yielded an IC50 of 12 µM.
For the molecule `OCc1nnc(-c2nn(Cc3ccccc3F)c3ccccc23)o1` [III-76], the “% increase in cGMP” value in assay [1] (embodiment III) stood at 397%. Further, the IC50 in assay [2] (embodiment III) was 7.4 µM.
In the case of `CNc1nc(-c2nn(Cc3ccccc3)c3ccccc23)ncc1Cl` [II-48], the activation at 1 µM in assay [1] (embodiment II) is > 1000%. The IC50 in assay [2] (setting [3]) was determined as 13 µM.
Take `Cc1ccnc(-c2nn(Cc3ccccc3)c3ccccc23)n1` [II-42]: the activation at 1 µM in assay [1] (embodiment II) stood at 611%. Further, in assay [2] (setting [3]), the midpoint of inhibition, the IC50, lay at 10 µM.
Take `c1ccc(Cn2nc(-c3ncccn3)c3ccccc32)cc1` [II-39]: in assay [1] (embodiment II), the activation at 1 µM stood at 909%. This molecule gave an IC50 in assay [2] (setting [3]) of 11 µM.
For `OCc1csc(-c2nn(Cc3ccccc3)c3ccccc23)n1` [III-82], the activation at 1 µM in assay [1] (embodiment III) came to 455%. The molecule further yielded an IC50 in assay [2] (setting [5]) of 15 µM.
With `Cc1coc(-c2nn(Cc3ccccc3F)c3ccccc23)n1` [III-80], the activation at 1 µM in assay [1] (embodiment III) is > 1000%. Moreover, the IC50 in assay [2] (setting [5]) stood at 3.6 µM.
In the case of `COCc1oc(-c2nn(Cc3ccccc3)c3ccccc23)nc1C` [III-90], the midpoint of inhibition in assay [2] (setting [5]), the IC50, lay at 4.1 µM.
Turning to `OCc1ccc(-c2nn(Cc3c(F)cccc3F)c3ccccc23)o1` [IV-165], in assay [1] (embodiment IV), the activation at 1 µM was found to be 256%. Further, the midpoint of inhibition in assay [2] (setting [4]), the IC50, lay at 29 µM.
In the case of `CC(=O)OCc1oc(-c2nn(Cc3ccccc3)c3ccccc23)nc1C` [III-77], the activation at 1 µM in assay [1] (embodiment III) is > 1000%. The molecule further had an IC50 in assay [2] (setting [5]) of 8.3 µM.
Take `CCOC(OCC)c1nc(-c2nn(Cc3ccccc3)c3ccccc23)ncc1C` [II-45]: in assay [1] (embodiment II), the activation at 1 µM was found to be 326%.
`Cc1cnc(-c2nn(Cc3ccccc3C#N)c3ccccc23)nc1C` [II-44]: the activation at 1 µM in assay [1] (embodiment II) is > 1000%.
`OCc1cnc(-c2nn(Cc3ccccc3)c3ccccc23)s1` [III-92]: the activation at 1 µM in assay [1] (embodiment III) came to 319%.
Consider `Cc1nc(-c2nn(Cc3ccccc3)c3ccccc23)oc1CO` [III-75], for which the activation at 1 µM in assay [1] (embodiment III) was > 1000%. The IC50 in assay [2] (setting [5]) was determined as 2.2 µM.
In the case of `O=Cc1ccc(-c2nn(Cc3ccccc3)c3ccccc23)o1` [IV-138, 1-Benzyl-3-(5-formylfuran-2-yl)-indazole], the activation at 1 µM in assay [1] (embodiment IV) is 324%.
Regarding `CCOCc1oc(-c2nn(Cc3ccccc3)c3ccccc23)nc1C` [III-91], the activation at 1 µM in assay [1] (embodiment III) was found to be 479%.
For the molecule `Nc1nccc(-c2nn(Cc3ccccc3)c3ccccc23)n1` [II-53], in assay [1] (embodiment II), the activation at 1 µM stood at 428%. The molecule further gave an IC50 in assay [2] (setting [3]) of 18 µM.
Take `Cc1nc(-c2nn(Cc3ccccc3)c3ccccc23)nc(C)c1C` [II-46]: the activation at 1 µM in assay [1] (embodiment II) was 390%.
For `OCc1cnc(-c2nn(Cc3ccccc3F)c3ccccc23)s1` [III-95], in assay [2] (setting [5]), the IC50 stood at 2.4 µM.
For `N#Cc1cccc(Cn2nc(-c3ccc(CO)o3)c3ccccc32)c1` [IV-166], in assay [2] (setting [4]), it took 18 µM to reach half-maximal inhibition (IC50).
`Cc1cc(Cl)cc(-c2nn(Cc3ccccc3)c3ccccc23)n1` [II-61]: in assay [2] (setting [3]), the IC50 is > 30 µM.
Regarding `c1ccc(Cn2nc(-c3cnccn3)c3ccccc32)cc1` [II-55], in assay [2] (setting [3]), the IC50 was > 35 µM.
In the case of `c1ccc(Cn2nc(-c3ccccn3)c3ccccc32)cc1` [II-58], in assay [1] (embodiment II), the activation at 1 µM is 271%.
Consider `Cc1cc(C)c(C#N)c(-c2nn(Cc3ccccc3)c3ccccc23)n1` [II-60], for which, in assay [2] (setting [3]), the IC50 is > 30 µM.
Consider `CCOC(=O)c1coc(-c2nn(Cc3ccccc3)c3ccccc23)n1` [III-93], for which the activation at 1 µM in assay [1] (embodiment III) is 271%.
Take `Cc1cnc(-c2nn(Cc3ccccc3F)c3ccccc23)nc1C` [II-43]: in assay [1] (embodiment II), the activation at 1 µM is > 1000%.
